Values of other authors as cited in patent US4138582A, “Cycloalkenyl analogues of prostaglandin A” (Miles Laboratories, Inc., priority 1977, dated 1979).
“Also recorded” adds a separate entry of the source. Where two headings read alike, the source gives them in different places.

Columns and labels:
gastric secretion [1] = details: man
growth hormone = details: rats
gastric secretion [2] = details: dogs
blood platelets = details: in vitro
human platelets = details: result in words
[3] = tested on: female reproductive system; details: fertility, labor, abortion, menstruation

| Compound | inhibition of gastric secretion (gastric secretion [1]) | growth hormone release / synthesis (growth hormone) | inhibition of gastric secretion (gastric secretion [2]) | inhibition of thrombogenesis (blood platelets) | inhibition of platelet aggregation by natural prostaglandin (human platelets) | effects in the female reproductive system [3] |
| --- | --- | --- | --- | --- | --- | --- |
| CCCCC[C@H](O)/C=C/[C@H]1C=CC(=O)[C@@H]1CCCCCCC(=O)O [PGA1] | exhibits similar activity in man | increased synthesis of that hormone | inhibit gastric secretion | – | – | – |
| CCCCC[C@H](O)/C=C/[C@H]1[C@H](O)CC(=O)[C@@H]1CCCCCCC(=O)O [PGE1] | – | increase release of growth hormone | inhibit gastric secretion | inhibits thrombogenesis in vitro | displays similar activity | – |
| CCCCC[C@H](O)/C=C/[C@H]1[C@H](O)CC(=O)[C@@H]1C/C=C\CCCC(=O)O [PGE2] | – | increase release of growth hormone | inhibit gastric secretion | – | – | exerts potent oxytocic effects in inducing labor |
| CCCCC[C@H](O)/C=C/[C@@H]1[C@@H](C/C=C\CCCC(=O)O)[C@@H](O)C[C@H]1O [PGF2α] | – | – | – | – | – | has centragestational effects; also recorded: appears to be involved in the mechanism of menstruation; also recorded: induces spontaneous abortions in early pregnancy |
